# Tested on: LNCaP cells
# Experiment: LNCaP cell viability assay (MTS)
# Format: cell-based
# Details: Homo sapiens, LNCaP cell line, 48 hours
# Procedure: LNCaP cell line was used for the cell viability assay. LNCaP cells were plated in 96-well plates at a density of 5000 cells per well. After 24 hours of plating, the cells were treated with increasing doses of compound (e.g., compounds 1-269) ranging from 1 μM to 80 μM. Relative cell numbers were analyzed after 48 hours using 3-(4,5-dimethylthiazol-2-yl)-5-(3-carboxymethoxyphenyl)-2-(4-sulfophenyl)-2H-tetrazolium (MTS) assay (Promega) according to the manufacturer's instructions.
# The cell viability data was analyzed with GraphPad Prism software. The values were log transformed and analyzed with non-linear regression (curve-fit) using log(inhibitor) vs. response-variable slope (four parameters) and constraining the bottom to equal zero. Unless otherwise indicated, the GI50 values provided in Table 113 correspond to the LNCaP cell viability assays.
row,Structure (SMILES),GI50 [µM]
1,"CN(C)CC(NS(=O)(=O)c1ccc(OC2CC2)cc1)c1ccc(Cl)c(Cl)c1 (stereo not shown) [Compound 154, 4-cyclopropoxy-N-(1-(3,4-dichlorophenyl)-2-(dimethylamino)ethyl)benzenesulfonamide]",53.8

# Same assay, conditions: Homo sapiens, LNCaP, 48 h, LNCaP cell line
row,Structure (SMILES),GI50 [µM]
1,"Cc1ccccc1C(NS(=O)(=O)c1ccc(OC(F)(F)F)cc1)C1CCCC(C)C1 (stereo not shown) [Compound 102, N-((3-methylcyclohexyl)(o-tolyl)methyl)-4-(trifluoromethoxy)benzenesulfonamide]",14
2,"O=S(=O)(NC(CN1CCNCC1)c1ccc(Cl)cc1)c1ccc(OC(F)(F)F)nc1 (stereo not shown) [Compound 259, N-(1-(4-chlorophenyl)-2-(piperazin-1-yl)ethyl)-6-(trifluoromethoxy)pyridine-3-sulfonamide]",48.8
3,"CC(Cc1c(Cl)cccc1Cl)NS(=O)(=O)c1ccc(OC(F)(F)F)cc1 (stereo not shown) [Compound 67, N-(1-(2,6-dichlorophenyl)propan-2-yl)-4-(trifluoromethoxy)benzenesulfonamide]",50
4,"CN(C)CC(NS(=O)(=O)c1ccc(C(F)(F)F)c([N+](=O)[O-])c1)c1ccc(Cl)c(Cl)c1 (stereo not shown) [Compound 266, N-(1-(3,4-dichlorophenyl)-2-(dimethylamino)ethyl)-3-nitro-4-(trifluoromethyl)benzenesulfonamide]",41.9
5,"CC(O)COc1ccccc1CNS(=O)(=O)c1ccc(OC(F)(F)F)cc1 (stereo not shown) [Compound 11, N-(2-(2-hydroxypropoxy)benzyl)-4-(trifluoromethoxy)benzenesulfonamide]",30.9
6,"CCCOc1ccc(S(=O)(=O)NC(CN(C)C)c2ccc(Cl)c(Cl)c2)cc1 (stereo not shown) [Compound 267, N-(1-(3,4-dichlorophenyl)-2-(dimethylamino)ethyl)-4-propoxybenzenesulfonamide]",23.8
7,"Cc1ccc(C(NS(=O)(=O)c2ccc(OC(F)(F)F)cc2)C(C)S(C)(=O)=O)cc1 (stereo not shown) [Compound 104, N-(2-(methylsulfonyl)-1-(p-tolyl)propyl)-4-(trifluoromethoxy)benzenesulfonamide]",49
8,"CC(C)(C)OC(=O)NC[C@H](NS(=O)(=O)c1ccc(OC(F)(F)F)cc1)c1ccccc1 [Compound 114, tert-butyl (R)-(2-phenyl-2-((4-(trifluoromethoxy)phenyl)sulfonamido)ethyl)carbamate]",42.5
9,"CCOc1ccccc1CNS(=O)(=O)c1ccc(OC(F)(F)F)cc1 [Compound 76, N-(2-ethoxybenzyl)-4-(trifluoromethoxy)benzenesulfonamide]",60
10,"O=S(=O)(NCCNS(=O)(=O)c1ccc(Cl)cc1F)c1ccc(OC(F)(F)F)cc1 [Compound 97, 4-chloro-2-fluoro-N-(2-((4-(trifluoromethoxy)phenyl)sulfonamido)ethyl)benzenesulfonamide]",41
11,"O=S(=O)(NCC1(c2ccc(Cl)c(Cl)c2)CC1)c1ccc(OC(F)(F)F)cc1 [Compound 227, N-((1-(3,4-dichlorophenyl)cyclopropyl)methyl)-4-(trifluoromethoxy)benzenesulfonamide]",48.6
12,"CCOC(=O)C(Cc1cccc(Cl)c1)NS(=O)(=O)c1ccc(OC(F)(F)F)cc1 (stereo not shown) [Compound 15, Ethyl 3-(3-chlorophenyl)-2-((4-(trifluoromethoxy)phenyl)sulfonamido)propanoate]",49.6
13,"Cc1ccc(S(=O)(=O)NC(CN(C)C)c2ccc(Cl)c(Cl)c2)cc1 (stereo not shown) [Compound 133, N-(1-(3,4-dichlorophenyl)-2-(dimethylamino)ethyl)-4-methylbenzenesulfonamide]",51.8
14,"CN(C)CC(NS(=O)(=O)c1ccc(C(=O)Nc2ccccc2)cc1)c1ccc(Cl)c(Cl)c1 (stereo not shown) [Compound 186, 4-(N-(1-(3,4-dichlorophenyl)-2-(dimethylamino)ethyl)sulfamoyl)-N-phenylbenzamide]",48.2
15,"O=S(=O)(NC(Cc1cccc(Br)c1)CC(F)(F)F)c1ccc(OC(F)(F)F)cc1 (stereo not shown) [Compound 44, N-(1-(3-bromophenyl)-4,4,4-trifluorobutan-2-yl)-4-(trifluoromethoxy)benzenesulfonamide]",59
16,"O=S(=O)(NC(CN1CCNCC1)c1ccc(Cl)cc1)c1ccc(OC(F)(F)F)cc1 (stereo not shown) [Compound 257, N-(1-(4-chlorophenyl)-2-(piperazin-1-yl)ethyl)-4-(trifluoromethoxy)benzenesulfonamide]",11.6
17,"O=S(=O)(NC(CN1CCCC1)c1ccc(Cl)c(Cl)c1)c1ccc(OC(F)(F)F)cc1 (stereo not shown) [Compound 182, N-(1-(3,4-dichlorophenyl)-2-(pyrrolidin-1-yl)ethyl)-4-(trifluoromethoxy)benzenesulfonamide]",24.5
18,"CCCOC1CCN(CC(NS(=O)(=O)c2ccc(OC(F)(F)F)cc2)c2ccc(Cl)c(Cl)c2)CC1 (stereo not shown) [Compound 241, N-(1-(3,4-dichlorophenyl)-2-(4-propoxypiperidin-1-yl)ethyl)-4-(trifluoromethoxy)benzenesulfonamide]",31.9
19,CN(C)CC(NS(=O)(=O)c1ccc(OC2CCCCC2)cc1)c1ccc(Cl)c(Cl)c1 (stereo not shown) [Compound 209],11.1

# Other lines, results leading:
row,GI50 [µM],Structure (SMILES)
1,34.6,"CCc1ccc(S(=O)(=O)NC(CN(C)C)c2ccc(Cl)c(Cl)c2)cc1 (stereo not shown) [Compound 212, N-(1-(3,4-dichlorophenyl)-2-(dimethylamino)ethyl)-4-ethylbenzenesulfonamide]"
2,66,"COCCC1(CNS(=O)(=O)c2ccc(OC(F)(F)F)cc2)CCCCC1 [Compound 53, N-((1-(2-methoxyethyl)cyclohexyl)methyl)-4-(trifluoromethoxy)benzenesulfonamide]"
3,12.1,"CN(C)CC(NS(=O)(=O)c1ccc(Oc2ccccc2)cc1)c1cccc(C(F)(F)F)c1 (stereo not shown) [Compound 189, N-(2-(dimethylamino)-1-(3-(trifluoromethyl)phenyl)ethyl)-4-phenoxybenzenesulfonamide]"
4,28,"CCn1nc(C(F)(F)F)cc1COCCNS(=O)(=O)c1ccc(OC(F)(F)F)cc1 [Compound 90, N-(2-((1-ethyl-3-(trifluoromethyl)-1H-pyrazol-5-yl)methoxy)ethyl)-4-(trifluoromethoxy)benzenesulfonamide]"
5,34,"COc1ccc(CNCC(NS(=O)(=O)c2ccc(OC(F)(F)F)cc2)c2ccc(Cl)c(Cl)c2)cc1 (stereo not shown) [Compound 256, N-(1-(3,4-dichlorophenyl)-2-((4-methoxybenzyl)amino)ethyl)-4-(trifluoromethoxy)benzenesulfonamide]"
6,46,"CN(C)CC(NS(=O)(=O)c1cccc(Cl)c1)c1ccc(Cl)c(Cl)c1 (stereo not shown) [Compound 163, 3-chloro-N-(1-(3,4-dichlorophenyl)-2-(dimethylamino)ethyl)benzenesulfonamide]"
7,65.3,"CN(C)C(=O)[C@H](Cc1ccc(Cl)c(Cl)c1)NS(=O)(=O)c1ccc(OC(F)(F)F)cc1 [Compound 249, (S)-3-(3,4-dichlorophenyl)-N,N-dimethyl-2-((4-(trifluoromethoxy)phenyl)sulfonamido)propenamide]"
8,50,"COC(=O)C(Cc1ccccc1O)NS(=O)(=O)c1ccc(OC(F)(F)F)cc1 (stereo not shown) [Compound 111, Methyl 3-(2-hydroxyphenyl)-2-((4-(trifluoromethoxy)phenyl)sulfonamido)propanoate]"
9,51.7,"O=S(=O)(NCC1(c2ccc(Cl)c(Cl)c2)CCCC1)c1ccc(OC(F)(F)F)cc1 [Compound 243, N-((1-(3,4-dichlorophenyl)cyclopentyl)methyl)-4-(trifluoromethoxy)benzenesulfonamide]"
10,10.5,"O=S(=O)(NC(CN1CC2CC1CN2)c1ccc(Cl)c(Cl)c1)c1ccc(OC(F)(F)F)cc1 (single isomer, unassigned) [Compound 261a, N-(2-(2,5-diazabicyclo[2.2.1]heptan-2-yl)-1-(3,4-dichlorophenyl)ethyl)-4-(trifluoromethoxy)benzenesulfonamide]"
11,40.5,"Cc1cccc(S(=O)(=O)NC(CN(C)C)c2ccc(Cl)c(Cl)c2)c1 (stereo not shown) [Compound 132, N-(1-(3,4-dichlorophenyl)-2-(dimethylamino)ethyl)-3-methylbenzenesulfonamide]"
12,10.7,"O=S(=O)(NCC1(c2ccc(Cl)c(Cl)c2)CCNC1)c1ccc(OC(F)(F)F)cc1 (stereo not shown) [Compound 253, N-((3-(3,4-dichlorophenyl)pyrrolidin-3-yl)methyl)-4-(trifluoromethoxy)benzenesulfonamide]"

# Same assay, conditions: LNCaP cell line, 48 hours
row,Structure (SMILES),GI50 [µM]
1,"CN(C)CC(NS(=O)(=O)c1ccc(OC(F)(F)F)cc1)c1cccc(C(F)(F)F)c1 (single isomer, unassigned) [Compound 178, N-(2-(dimethylamino)-1-(3-(trifluoromethyl)phenyl)ethyl)-4-(trifluoromethoxy)benzenesulfonamide]",51.2
2,"O=S(=O)(NC(CC1CC1)c1ccc(F)cc1Br)c1ccc(OC(F)(F)F)cc1 (single isomer, unassigned) [Compound 142b, N-(1-(2-bromo-4-fluorophenyl)-2-cyclopropylethyl)-4-(trifluoromethoxy)benzenesulfonamide]",49.6

# Other lines, results leading:
row,GI50 [µM],Structure (SMILES)
1,1.14,"CN(C)C[C@@H](NS(=O)(=O)c1ccc(OC(F)(F)F)c([N+](=O)[O-])c1)c1ccc(Cl)c(Cl)c1 (single isomer, unassigned) [Compound 204, N-(1-(3,4-dichlorophenyl)-2-(dimethylamino)ethyl)-3-nitro-4-(trifluoromethoxy)benzenesulfonamide]"
2,53.8,"CN(C)CC(NS(=N)(=O)c1ccc(OC(F)(F)F)cc1)c1ccc(Cl)c(Cl)c1 (single isomer, unassigned) [Compound 165b, N-(1-(3,4-dichlorophenyl)-2-(dimethylamino)ethyl)-4-(trifluoromethoxy)benzenesulfonimidamide]"
3,17.8,"CCCc1ccc(S(=O)(=O)NC(CN(C)C)c2ccc(Cl)c(Cl)c2)cc1 (single isomer, unassigned) [Compound 200, N-(1-(3,4-dichlorophenyl)-2-(dimethylamino)ethyl)-4-propylbenzenesulfonamide]"

# — patent US20240174603A1 (Rappta Therapeutics Oy, priority 2021, published 2024)
